pKd: −log10 of the molar value.
Target: T1, human serum albumin (HSA) (Homo sapiens, UniProt P02768)
T1 construct: gene ALB
Assay: fluorescence titration (one-site fit), Job's plot […], site-marker displacement
Format: binding

T1 sequence (P02768 25-609): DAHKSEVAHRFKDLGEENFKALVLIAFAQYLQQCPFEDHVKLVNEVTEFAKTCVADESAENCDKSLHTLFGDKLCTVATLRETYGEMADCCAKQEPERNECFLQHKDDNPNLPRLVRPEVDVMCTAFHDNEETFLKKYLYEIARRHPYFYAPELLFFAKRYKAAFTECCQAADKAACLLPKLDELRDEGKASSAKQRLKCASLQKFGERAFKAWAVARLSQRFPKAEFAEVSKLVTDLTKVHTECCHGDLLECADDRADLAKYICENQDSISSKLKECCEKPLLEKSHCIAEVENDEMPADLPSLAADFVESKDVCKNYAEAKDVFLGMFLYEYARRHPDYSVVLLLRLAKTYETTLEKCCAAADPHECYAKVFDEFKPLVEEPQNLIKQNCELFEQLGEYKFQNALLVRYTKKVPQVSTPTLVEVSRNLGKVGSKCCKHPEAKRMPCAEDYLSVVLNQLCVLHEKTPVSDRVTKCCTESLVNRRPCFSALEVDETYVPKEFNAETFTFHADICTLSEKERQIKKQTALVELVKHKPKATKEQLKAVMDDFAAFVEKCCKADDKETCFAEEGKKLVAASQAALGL

CCN(CC)c1ccc(-c2cc3c(s2)c(C(=O)O)cc(=O)n3C)cc1 [compound 4, KF 4]
pKd: 5.27

From PMC6928863, “Development of Human Serum Albumin Selective Fluorescent Probe Using Thieno[3,2-b]pyridine-5(4H)-one Fluorophore Derivatives” (Sensors (Basel, Switzerland), 2019)
